From ChEMBL document CHEMBL1201862, “PubChem BioAssay data set” (2004)
Activity calls are given as the source filed them. For most assays here, no stated cut-off is given here; in the data, actives have a measured EC50 and inactives only a lower limit.

Columns and labels:
[1] = test system: Streptococcus; assay: GAS UMAA2166 growth inhibition – luminescence, BacTiterGlo, counter-screen for streptokinase expression inhibitor project, dose response (AID 1915); type: functional, organism-based; settings: Streptococcus;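 further: potency for reduction of bacterial viability or growth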
[2] = test system: Streptococcus sp. 'group A'; assay: Streptococcus pyogenes SK(-)GAS viability under kanamycin – luminescence, BacTiterGlo, confirmation, counter-screen for streptokinase expression inhibitor project, dose response (AID 1900); type: functional, organism-based; settings: Streptococcus sp. 'group A'
[3] = target: T1, Streptokinase A (Streptococcus pyogenes serotype M1, UniProt P10520); assay: viability-normalized secreted streptokinase activity reduction – plasminogen activation absorbance, OD405, dose response (AID 1914); type: functional, Streptococcus pyogenes M1 GAS;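 further: secreted streptokinase activity via plasminogen activation per viability signal from cell pellet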
T1 sequence (P10520 whole entry): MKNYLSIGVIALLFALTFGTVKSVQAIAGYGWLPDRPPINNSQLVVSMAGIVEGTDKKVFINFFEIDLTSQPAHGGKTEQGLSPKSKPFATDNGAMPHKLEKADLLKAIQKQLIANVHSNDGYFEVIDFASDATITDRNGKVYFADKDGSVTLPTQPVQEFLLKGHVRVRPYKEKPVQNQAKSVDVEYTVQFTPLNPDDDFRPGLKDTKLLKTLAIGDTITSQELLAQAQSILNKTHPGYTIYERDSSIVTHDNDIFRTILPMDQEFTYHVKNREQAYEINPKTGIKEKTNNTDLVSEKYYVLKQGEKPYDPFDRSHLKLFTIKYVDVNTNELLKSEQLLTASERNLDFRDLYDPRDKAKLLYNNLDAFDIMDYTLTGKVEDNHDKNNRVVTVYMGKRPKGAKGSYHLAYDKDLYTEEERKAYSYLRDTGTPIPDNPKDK

[4] = viability of uninfected HEp-2 cells – cell-based, HTS, cytotoxicity control for RSV inhibitor project, dose response (AID 2410); type: functional; settings: human respiratory syncytial virus
[5] = NIH3T3 cell viability loss – ATP luminescence, mouse fibroblasts, counter-screen, dose response (AID 2010); type: functional, cell-based; settings: NIH3T3;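 further: cells exposed to compound for about 90 hours before reading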
[6] = Trypanosoma cruzi growth suppression in host cells – NIH3T3 host cells, beta-gal luminescence, confirmation (AID 2044); type: functional, cell-based;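 further: intracellular parasites grown in NIH/3T3 mouse fibroblasts as host cells; luminescent beta-galactosidase reporter signal from transgenic T. cruzi replicating inside host cells; inhibitors lower the luminescence signal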
[7] = target: Cytochrome P450 3A4 (Homo sapiens, UniProt P08684);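 further: CYP3A4 tested as one member of a cytochrome P450 panel screen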
Sequence of Cytochrome P450 3A4 (P08684 whole entry): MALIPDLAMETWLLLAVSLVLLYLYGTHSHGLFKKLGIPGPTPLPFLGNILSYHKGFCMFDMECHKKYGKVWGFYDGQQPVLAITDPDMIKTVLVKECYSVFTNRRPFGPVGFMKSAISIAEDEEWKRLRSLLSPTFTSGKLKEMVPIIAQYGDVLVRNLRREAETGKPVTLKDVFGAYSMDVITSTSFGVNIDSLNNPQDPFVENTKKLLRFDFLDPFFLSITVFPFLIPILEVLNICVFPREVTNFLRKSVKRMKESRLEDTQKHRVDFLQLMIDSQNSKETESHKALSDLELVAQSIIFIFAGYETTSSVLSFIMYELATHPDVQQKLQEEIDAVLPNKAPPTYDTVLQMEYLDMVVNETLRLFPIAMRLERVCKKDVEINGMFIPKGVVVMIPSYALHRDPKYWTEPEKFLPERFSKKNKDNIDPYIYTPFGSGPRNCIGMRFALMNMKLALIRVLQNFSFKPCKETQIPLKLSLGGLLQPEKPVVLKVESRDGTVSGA

Structure (SMILES) | EC50 [1] | EC50 [2] | EC50 [3] | EC50 [5] | EC50 [6] | other results
Cc1nc(NC(=O)c2ccc(Cl)cc2)sc1-c1csc(Nc2cccc(F)c2)n1 | 21.4 µM (active) | 1.67 µM (active) | > 150 µM (not active) | – | – | –
Cc1ccc(C2(C(F)(F)F)N=C3Sc4cc(C)cc(C)c4N3C(=O)N2)cc1 (centres undefined) | – | – | – | – | – | CC50 [4]: 23 µM (active)
Fc1ccc(CNc2nc(-c3cccnc3)nc3ccccc23)cc1 | – | – | – | > 60 µM (not active) | 0.67 µM (active) | –
CCOC(=O)c1c(NC(=O)CSc2nnnn2-c2ccccc2OCC)sc2c1CC(C)(C)NC2(C)C | – | – | – | > 30 µM (not active) | 1.31 µM (active) | –
Cc1cc(N/N=C/c2cccc(Br)c2)nc2ccccc12 | 7.4 µM (active) | 7.14 µM (active) | > 150 µM (not active) | – | – | –
CC(=O)NCCn1c(SCc2cc(F)ccc2F)nc2ccccc2c1=O | – | – | – | > 60 µM (not active) | 0.487 µM (active) | –
Cc1nn(-c2ccc([N+](=O)[O-])cc2)c(O)c1/C=N/CCN1CCN(C(=O)c2ccc(Br)cc2)CC1 | – | – | – | 39.9 µM (active) | 10.7 µM (active) | –
Cc1ccc(S(=O)(=O)Nc2cccc(-c3ccc(N4CCCCCC4)nn3)c2)cc1C | – | – | – | – | – | CC50 [4]: 25.8 µM (active)
Cc1nc(S)c2c(n1)-c1ccccc1CC21CCCCC1 | 3.57 µM (active) | 1.15 µM (active) | – | – | – | –
COc1cc2c3cc1Oc1c(OC)c(OC)cc4c1[C@@H](Cc1ccc(O)c(c1)Oc1ccc(cc1)C[C@@H]3N(C)CC2)CN(C)C4 | – | – | – | – | – | AC50 [7]: 2.51 µM (inconclusive)
Cc1ccc(C)c(-c2nnc(NC(=O)CCS(=O)(=O)c3ccccc3)o2)c1 | 141 µM (active) | 8.03 µM (active) | > 150 µM (not active) | – | – | –
CN1CCN(C(=O)CCCN2C(=O)/C(=C/c3ccc(Cl)cc3)SC2=S)CC1 | – | – | – | – | – | CC50 [4]: 13.5 µM (active)
Cc1ccc(C(=O)OC2OC(=O)C(Cl)=C2N2CCOCC2)cc1 (centres undefined) | 2.04 µM (active) | 0.884 µM (active) | – | – | – | –
Clc1ccccc1Sc1ccc(-c2ccccn2)s1 | > 150 µM (not active) | 17.6 µM (active) | > 150 µM (not active) | – | – | –
Cn1nc(-c2ccccc2)c(CSc2ccccc2Cl)c1Cl | > 150 µM (not active) | 22.8 µM (active) | 22.8 µM (active) | – | – | –
c1ccc(Nc2nc3ccccc3[nH]2)nc1 | > 150 µM (not active) | 3.59 µM (active) | > 150 µM (not active) | – | – | –
Cc1ccc(N2C(=O)CC(Sc3nc4ccccc4o3)C2=O)cc1Cl (centres undefined) | – | – | – | 8.27 µM (active) | 2.16 µM (active) | –
c1ccc(-c2cccc(N3CC[C@@]4(CCCNC4)C3)c2)cc1 | – | – | – | – | – | AC50 [7]: 15.8 µM (inconclusive)
CSc1ccc(S(=O)(=O)NCC(=O)OCC(=O)N2CCCC2=O)cc1[N+](=O)[O-] | > 150 µM (not active) | 4.7 µM (active) | > 150 µM (not active) | – | – | –
N#Cc1ccccc1-c1ccc2ncnc(N3CCNCC3)c2c1 | – | – | – | – | – | AC50 [7]: 31.6 µM (inconclusive)
CC(C)(C)n1nnnc1C(c1cccnc1)N1CCN(c2ccccc2)CC1 (centres undefined) | – | – | – | > 60 µM (not active) | 0.666 µM (active) | –
COc1ccc(C(=O)Nc2ccccc2-c2nnn(CC(=O)Nc3ccc4c(c3)OCCO4)n2)cc1 | > 150 µM (inconclusive) | 41.1 µM (active) | > 150 µM (not active) | – | – | –
CC[C@H]1C2=C3C(CC[C@H]4C(OCc5ccc(F)cc5C(F)(F)F)OC[C@](C)([C@@H]34)N(C(=O)OC(C)(C)C)C2)C(COC)C1COC (some centres undefined) | – | – | – | – | – | AC50 [7]: 10 µM (inconclusive)
O=C(NCc1ccco1)C(c1ccccc1F)N(Cc1cccnc1)C(=O)Cn1nnc2ccccc21 (centres undefined) | – | – | – | > 60 µM (not active) | 1.68 µM (active) | –
N[C@@H](Cc1c[nH]cn1)C(=O)O [HISTIDINE] | – | – | – | – | – | AC50 [7]: 0.794 µM (inconclusive)

Structure (SMILES) | EC50 [1] | EC50 [2] | EC50 [3] | EC50 [5] | EC50 [6] | other results
C/C(=N\NC(=S)Nc1ccccc1C)c1cc2ccccc2o1 | – | – | – | > 60 µM (not active) | 2.18 µM (active) | –
N#C/C(=N\Nc1ccc(S(=O)(=O)N2CCOCC2)cc1)C(N)=S | > 150 µM (not active) | > 150 µM (not active) | > 150 µM (not active) | – | – | –
COc1ccc(-n2c(=O)c(-c3cccs3)nc3cnc(Nc4cccc(OC)c4)nc32)cc1 | – | – | – | – | – | AC50 [7]: 1.58 µM (inconclusive)
CC1CCCC(C)N1c1nnc(NC(=O)c2cc(-c3ccc(Br)cc3)on2)s1 (centres undefined) | 25.2 µM (active) | 2.33 µM (active) | > 150 µM (not active) | – | – | –
O=C(Nc1ccccc1N1CCN(C(=O)c2ccc(Cl)cc2)CC1)c1ccc(Br)cc1 | – | – | – | > 60 µM (not active) | 1.29 µM (active) | –
Cc1nc(N2CCN(Cc3ccccc3)CC2)nc2c1C(=O)CC(C)C2 (centres undefined) | – | – | – | > 60 µM (not active) | 1.42 µM (active) | –
CCOC(=O)C1CCN(C2=C(NS(=O)(=O)c3ccc(Cl)cc3)C(=O)c3ccccc3C2=O)CC1 | > 150 µM (not active) | 8.11 µM (active) | 27 µM (active) | – | – | –
CN1CCN(c2ccc(S(=O)(=O)N3CCCCC3)cc2NC(=O)COc2cccc(Cl)c2)CC1 | – | – | – | > 30 µM (not active) | 0.629 µM (active) | –
CNC(=O)c1sc(-c2cccnc2)nc1C | – | – | – | – | – | AC50 [7]: 31.6 µM (inconclusive)
CCCSc1nsc(NC(=O)CCC)n1 | – | – | – | > 60 µM (not active) | 1.04 µM (active) | –
CN(C)CCOCCOc1ccc(Cl)cc1Br | – | – | – | > 60 µM (inconclusive) | 0.937 µM (active) | –
Cc1cccc(C(=O)NNC(=O)c2c(O)c3ccccc3n(C)c2=O)c1 | 9.81 µM (active) | 4.62 µM (active) | > 150 µM (not active) | – | – | –
CCOc1ccccc1NC(=O)NCc1ccc2c(c1)OCO2 | > 150 µM (not active) | > 150 µM (not active) | > 150 µM (not active) | – | – | –
COc1ccccc1CN1CCCC(CNC(=O)c2cccc3ccccc23)C1 (centres undefined) | – | – | – | > 60 µM (not active) | 0.679 µM (active) | –
Cc1cc(C)c2[nH]c(O)c(N=Nc3ccc(C(=O)O)cc3)c2c1 | 11.1 µM (active) | 4.53 µM (active) | > 150 µM (not active) | – | – | –
Cc1cnc(CNc2ccnc(-c3c(C)noc3C)n2)cn1 | – | – | – | – | – | AC50 [7]: 10 µM (inconclusive)
COC(=O)c1nn(-c2ccc(OC)cc2)c(=O)cc1Oc1cccc(Cl)c1 | – | – | – | – | – | AC50 [7]: 39.8 µM (inconclusive)
NCCCP(=O)(O)O | – | – | – | – | – | AC50 [7]: 0.158 µM (inconclusive)
COc1ccc(C(=O)C2CCCN(Cc3ccc4nonc4c3)C2)c(OC)c1 (centres undefined) | – | – | – | > 60 µM (not active) | 0.97 µM (active) | –
CC(C)CCn1c(=O)c(C(=O)N/N=C/c2cccc(F)c2)c(O)c2ccccc21 | 7.41 µM (active) | 2.24 µM (active) | – | – | – | –
Cc1ccc(OCC(=O)Nc2cc(S(=O)(=O)N3CCCCC3)ccc2N2CCN(C)CC2)c(C)c1 | – | – | – | > 60 µM (not active) | 0.171 µM (active) | –
COc1ccccc1CN1CCCC2(CCN(C(=O)c3ccco3)CC2)C1 | – | – | – | – | – | AC50 [7]: 25.1 µM (inconclusive)
Cc1ccc2sc(NNC(=O)c3cc(-c4cccs4)nc4ccccc34)nc2c1C | 1.48 µM (active) | 0.758 µM (active) | – | – | – | –
COc1ccc(-n2nc3cc(C)c(NC(=O)C(C)C)cc3n2)cc1 | > 150 µM (not active) | > 150 µM (not active) | > 150 µM (not active) | – | – | –
